PMC12368482, “Antiprotozoal Activity of Highly Substituted Pyrazole and Pyrimidine Derivatives” (Chemmedchem, 2025)
Like-named read-outs stand apart in the source and are kept apart here. Blank lines part the entries; values can stand above or below the compound they belong to.

How the values were obtained:
Format in all cases: cell-based
P. falciparum D10 = assay: Antiplasmodial susceptibility assay (pLDH), CQ-sensitive D10 strain; conditions: Plasmodium falciparum, read-out: IC50 P. falciparum D10
Procedure: (§1) Continuous in vitro Plasmodium falciparum cultures were carried out according to Trager and Jensen with slight modifications.^[ [38] ^] The CQ‐susceptible strain D10 and the CQ‐resistant strain W2 were maintained at 5% hematocrit (human type A‐positive red blood cells) in RPMI 1640 (EuroClone, Celbio) medium with the addition of 1% AlbuMax (Invitrogen, Milan, Italy), 0.01% hypoxanthine, 20 mM HEPES (at pH 7.4), and 2 mM glutamine. All the cultures were maintained at 37 °C in a low‐oxygen atmosphere consisting of 1% O2, 5% CO2, and 94% N2. Compounds were dissolved in DMSO to a stock concentration of 10 mg/ml and then diluted with complete medium to achieve the desired concentrations (final DMSO concentration <1%, which is nontoxic to the parasite). Derivatives were placed in 96‐well flat‐bottomed microplates in duplicate, and seven 1:2 serial dilutions were made directly in the plate in a volume of 100 μL. Asynchronous cultures with parasitemia of 1%–1.5% (assessed through Giemsa stained blood smears) and 1% final hematocrit were aliquoted into the plates and incubated for 72 h at 37 °C in a final volume of 200 μL/well. Uninfected erythrocytes at 2% hematocrit were used as blank. The antimalarial CQ was tested against the parasite strains as a positive control of inhibition. Parasite growth was determined spectrophotometrically (OD650) by measuring the activity of the parasite lactate dehydrogenase (pLDH), according to a modified version of the method of Makler in control and drug‐treated cultures.^[ [39] ^] The antimalarial activity was expressed as 50% inhibitory concentrations (IC50). The IC50 values were extrapolated from nonlinear regression analysis of the concentration–response curve, using the software Gen5 1.10 provided with the Synergy 4 (BioTek) reader. Each IC50 value was the mean of three independent experiments run in duplicates.

P. falciparum W2 = assay: Antiplasmodial susceptibility assay (pLDH), CQ-resistant W2 strain; conditions: Plasmodium falciparum, read-out: IC50 P. falciparum W2
Procedure: as §1

[1] = tested on: L. infantum promastigotes; assay: Antileishmanial evaluation (MTT), promastigotes; conditions: Leishmania infantum, 72 h, NA = not active
Procedure: (§2) The promastigote stage of L. infantum strain MHOM/TN/80/IPT1 (kindly provided by Dr M. Gramiccia, ISS, Roma) and L. tropica strain (MHOM/IT/2012/ISS3130) were cultured in RPMI 1640 medium (EuroClone) supplemented with 10% heat‐inactivated fetal calf serum (EuroClone), 20 mM Hepes, and 2 mM L‐glutamine at 24 °C. To determine the 50% inhibitory concentration (IC50), the MTT method was used.^[ [40], [41] ^] Compounds were dissolved in DMSO and then diluted with medium to achieve the required concentrations. Drugs were placed in 96 wells round‐bottom microplates and seven serial dilutions made. Amphotericin B was used as reference antiLeishmania drug. Parasites were diluted in complete medium to 5 × 10^6 parasites mL^−1 and 100 μL of the suspension was added to each well. The plates were incubated at 24 °C for 72 h, after the incubation 20 μL of MTT solution (5 mg mL^−1) was added to each well and incubated for additional 3 h. The plates were then centrifuged at 1000 × g for 8 min at room temperature and the supernatants were discarded. The resulting pellets were dissolved in 100 μL of lysing buffer consisting of 20% w/v of a solution of SDS (Sigma), 40% of DMF (Merck) in H2O. The absorbance was measured spectrophotometrically at a test wavelength of 550 nm and a reference wavelength of 650 nm. The results were expressed as IC50 which was the concentration of compound necessary to inhibit parasite growth by 50%; each IC50 value was the mean of separate experiments performed in duplicate.

L. tropica promastigotes = assay: Antileishmanial evaluation (MTT), promastigotes; conditions: Leishmania tropica, 72 h, NA = not active
Procedure: as §2

[2] = MTT cytotoxicity assay on fibroblasts; conditions: human, GM-6114 embryonic human fibroblasts, compounds tested at 10 μM for 48 h, percentage of control, read-out: Cell viability GM‐6114
Procedure: MTT assays: MTT assays were performed using GM‐6114 (embryonic human fibroblast, ATCC, Manassas, VA). The cells were grown in DMEM with 10% FBS, 2 mM glutamine, and 1% penstrep and incubated at 37 °C in 5% CO2 in a humidified environment. All reagents were purchased from EuroClone (Milan, Italy). Briefly, the cell line was plated in 96 well plates at an adequate number to reach 80%–90% of confluence at the end of the assay. 16 h after cell plating, compounds were dissolved in DMSO to give a 10 mM stock solution, diluted in growth medium, and added at a final working concentration of 10 μM. After 48 h of incubation, 30 μL of 3‐(4,5‐dimethyl‐2‐thiazolyl)‐2,5‐diphenyl‐2H‐tetrazolium bromide (MTT) at a concentration of 2 mg mL^−1 in PBS were added in each well. Then, after further 4 h of incubation, the supernatant was removed, and 100 μL/well of DMSO were used to dissolve the formazan precipitate that could be found in vital cells. After 20 min, the results were read at 570 nm by means of a plate reader. The results were expressed as percentage of the control samples in which the cells were incubated with the same amount of DMSO but without compounds. The assays were repeated three times. In each set, every single compound was tested six times. Variation among duplicates was less than 10%.

[3] = CQ-sensitive strain D10, 72 h, pLDH readout, mean of three independent experiments in duplicate, NA = not active
[4] = CQ-resistant strain W2, 72 h, pLDH readout, mean of three independent experiments in duplicate, NA = not active

IC50 (P. falciparum D10; [3]): 28.6 µM | IC50 (P. falciparum W2; [4]): 25.6 µM | IC50 [1]: 40.1 µM | IC50 (L. tropica promastigotes): 52.2 µM
SMILES: COc1ccc(CCNc2[nH]nc(C(C)(C)C)c2C#N)cc1OC [13a, 3‐(tert‐butyl)‐5‐((3,4‐dimethoxyphenethyl)amino)‐1H‐pyrazole‐4‐carbonitrile]
viability at 48 h, 10 μM [2]: 82%

IC50 (P. falciparum D10; [3]): 14.9 µM | IC50 (P. falciparum W2; [4]): 11.1 µM | IC50 [1]: 30.4 µM | IC50 (L. tropica promastigotes): 34.6 µM
SMILES: CC(C)(C)c1n[nH]c(N2CCC(c3ccccc3)CC2)c1C#N [13c, 3‐(tert‐butyl)‐5‐(4‐phenylpiperidin‐1‐yl)‐1H‐pyrazole‐4‐carbonitrile]
viability at 48 h, 10 μM [2]: 94%

IC50 (P. falciparum D10; [3]): 35.1 µM | IC50 (P. falciparum W2; [4]): 36.5 µM | IC50 [1]: 40.1 µM | IC50 (L. tropica promastigotes): 55.7 µM
SMILES: COc1ccc(CCNc2[nH]nc(-c3ccccc3)c2C#N)cc1OC [14a, 5‐((3,4‐dimethoxyphenethyl)amino)‐3‐phenyl‐1H‐pyrazole‐4‐carbonitrile]
viability at 48 h, 10 μM [2]: 87%

IC50 [1]: 75.9 µM
SMILES: N#Cc1c(-c2ccccc2)n[nH]c1N1CCOCC1 [14b, 5‐morpholino‐3‐phenyl‐1H‐pyrazole‐4‐carbonitrile]
viability at 48 h, 10 μM [2]: 84%

IC50 (P. falciparum D10; [3]): 31 µM | IC50 (P. falciparum W2; [4]): 23.4 µM | IC50 [1]: 22.4 µM | IC50 (L. tropica promastigotes): 21.3 µM
SMILES: N#Cc1c(-c2ccccc2)n[nH]c1N1CCC(c2ccccc2)CC1 [14c, 3‐phenyl‐5‐(4‐phenylpiperidin‐1‐yl)‐1H‐pyrazole‐4‐carbonitrile]
viability at 48 h, 10 μM [2]: 76%

IC50 (P. falciparum D10; [3]): 9.79 µM | IC50 (P. falciparum W2; [4]): 4.34 µM | IC50 [1]: 6.17 µM | IC50 (L. tropica promastigotes): 8.32 µM
SMILES: CCCCN(CCCC)CCCNc1[nH]nc(-c2ccccc2)c1C#N [14e, 5‐((3‐(dibutylamino)propyl)amino)‐3‐phenyl‐1H‐pyrazole‐4‐carbonitrile]
viability at 48 h, 10 μM [2]: 65%

IC50 (P. falciparum D10; [3]): 43.3 µM | IC50 (P. falciparum W2; [4]): 13.4 µM | IC50 [1]: 11 µM | IC50 (L. tropica promastigotes): 9.74 µM
SMILES: CCN(CC)CCCC(C)Nc1[nH]nc(-c2ccccc2)c1C#N (stereo not shown) [14f, 5‐((5‐(diethylamino)pentan‐2‐yl)amino)‐3‐phenyl‐1H‐pyrazole‐4‐carbonitrile]
viability at 48 h, 10 μM [2]: 58%

IC50 (P. falciparum D10; [3]): 9.24 µM | IC50 (P. falciparum W2; [4]): 31.7 µM
SMILES: COc1ccc(CCNc2nc(N)nc(O)c2C#N)cc1OC [16a, 2‐amino‐4‐((3,4‐dimethoxyphenethyl)amino)‐6‐hydroxypyrimidine‐5‐carbonitrile]
viability at 48 h, 10 μM [2]: 67%

IC50 (P. falciparum W2; [4]): 45 µM
SMILES: CCCCN(CCCC)CCCNc1nc(N)nc(O)c1C#N [16e, 2‐amino‐4‐((3‐(dibutylamino)propyl)amino)‐6‐hydroxypyrimidine‐5‐carbonitrile]
viability at 48 h, 10 μM [2]: 66%

IC50 (P. falciparum D10; [3]): 16.7 µM | IC50 (P. falciparum W2; [4]): 4.18 µM | IC50 [1]: 7.31 µM | IC50 (L. tropica promastigotes): 9.14 µM
SMILES: CCCCN(CCCC)CCCNc1nc(N)nc(-c2ccccc2)c1C#N [17e, 2‐amino‐4‐((3‐(dibutylamino)propyl)amino)‐6‐phenylpyrimidine‐5‐carbonitrile]
viability at 48 h, 10 μM [2]: 67%

IC50 (P. falciparum D10; [3]): 27.8 µM | IC50 (P. falciparum W2; [4]): 21 µM | IC50 [1]: 17.7 µM | IC50 (L. tropica promastigotes): 21.2 µM
SMILES: N#Cc1c(-c2cccc(Br)c2)n[nH]c1Nc1ccccc1 [VIa, reference compound]
viability at 48 h, 10 μM [2]: 78%

IC50 (P. falciparum D10; [3]): 34.3 µM | IC50 (P. falciparum W2; [4]): 32.7 µM | IC50 [1]: 19.1 µM | IC50 (L. tropica promastigotes): 23.2 µM
SMILES: N#Cc1c(-c2ccc(Cl)cc2)n[nH]c1Nc1ccccc1 [VIb, reference compound]
viability at 48 h, 10 μM [2]: 70%

IC50 (P. falciparum D10; [3]): 19.8 µM | IC50 (P. falciparum W2; [4]): 19.9 µM | IC50 [1]: 19.3 µM | IC50 (L. tropica promastigotes): 23.2 µM
SMILES: N#Cc1c(-c2ccc(Br)cc2)n[nH]c1Nc1ccccc1 [VIc, reference compound]
viability at 48 h, 10 μM [2]: 67%

Continued, compound first:

SMILES: CC(C)(C)c1n[nH]c(N2CCOCC2)c1C#N [13b, 3‐(tert‐butyl)‐5‐morpholino‐1H‐pyrazole‐4‐carbonitrile]
viability at 48 h, 10 μM [2]: 91%

SMILES: CCCCN(CCCC)CCNc1[nH]nc(-c2ccccc2)c1C#N [14d, 5‐((2‐(dibutylamino)ethyl)amino)‐3‐phenyl‐1H‐pyrazole‐4‐carbonitrile]
IC50 (P. falciparum D10; [3]): 9.52 µM | IC50 (P. falciparum W2; [4]): 9 µM | IC50 [1]: 7.92 µM | IC50 (L. tropica promastigotes): 11.6 µM | viability at 48 h, 10 μM [2]: 71%

SMILES: COc1ccc(CCNc2[nH]nc(N)c2S(=O)(=O)c2ccccc2)cc1OC [15a, N ^ 5 ‐(3,4‐dimethoxyphenethyl)‐4‐(phenylsulfonyl)‐1H‐pyrazole‐3,5‐diamine]
viability at 48 h, 10 μM [2]: 70%

SMILES: Nc1n[nH]c(N2CCOCC2)c1S(=O)(=O)c1ccccc1 [15b, 5‐morpholino‐4‐(phenylsulfonyl)‐1H‐pyrazol‐3‐amine]
IC50 (P. falciparum D10; [3]): 49.6 µM | IC50 (P. falciparum W2; [4]): 50.4 µM | viability at 48 h, 10 μM [2]: 87%

SMILES: Nc1n[nH]c(N2CCC(c3ccccc3)CC2)c1S(=O)(=O)c1ccccc1 [15c, 5‐(4‐phenylpiperidin‐1‐yl)‐4‐(phenylsulfonyl)‐1H‐pyrazol‐3‐amine]
IC50 (P. falciparum D10; [3]): 38 µM | IC50 (P. falciparum W2; [4]): 51.8 µM | IC50 [1]: 27.4 µM | IC50 (L. tropica promastigotes): 44 µM | viability at 48 h, 10 μM [2]: 102%

SMILES: N#Cc1c(O)nc(N)nc1N1CCOCC1 [16b, 2‐amino‐4‐hydroxy‐6‐morpholinopyrimidine‐5‐carbonitrile]
viability at 48 h, 10 μM [2]: 65%

SMILES: COc1ccc(CCNc2nc(N)nc(-c3ccccc3)c2C#N)cc1OC [17a, 2‐amino‐4‐((3,4‐dimethoxyphenethyl)amino)‐6‐phenylpyrimidine‐5‐carbonitrile]
viability at 48 h, 10 μM [2]: 46%

SMILES: N#Cc1c(-c2ccccc2)nc(N)nc1N1CCOCC1 [17b, 2‐amino‐4‐morpholino‐6‐phenylpyrimidine‐5‐carbonitrile]
viability at 48 h, 10 μM [2]: 66%

SMILES: C[C@@H]1[C@H](O)[C@@H](C)/C=C/C=C/C=C/C=C/C=C/C=C/C=C/[C@H](O[C@@H]2O[C@H](C)[C@@H](O)[C@H](N)[C@@H]2O)C[C@@H]2O[C@](O)(C[C@@H](O)C[C@@H](O)[C@H](O)CC[C@@H](O)C[C@@H](O)CC(=O)O[C@H]1C)C[C@H](O)[C@H]2C(=O)O [AmB, amphotericin B, reference compound]
IC50 [1]: 0.22 µM | IC50 (L. tropica promastigotes): 0.29 µM

SMILES: CCN(CC)CCCC(C)Nc1ccnc2cc(Cl)ccc12 (stereo not shown) [CQ, chloroquine, reference compound]
IC50 (P. falciparum D10; D10, 72 h): 0.04 µM | IC50 (P. falciparum W2; W2, 72 h): 0.45 µM
